Experimental data taken from US20230357099A1, “PYRAZOLO [3,4-B] PYRIDINE-4-CARBOXAMIDE NITRIFICATION INHIBITOR” (EUROCHEM ANTWERPTEN, priority 2020, published 2023).

Legend:
[1] = tested on: Nitrososphaera viennensis; assay: Nitrification inhibition assay on Nitrososphaera viennensis (nitrite, Griess); format: cell-based, Nitrososphaera viennensis EN76T; conditions: Nitrososphaera viennensis; 2.5 µM compound; structural variants outside formula (I); read-out: Relative nitrification (%) by Nitrososphaera viennensis treated with 2.5 µM compound
Outline: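 N. viennensis EN76T cultures in FWM (pH 7.5, NH4Cl-supplemented), 5× concentrated, treated with compounds at 2.5 µM final (0.25% DMSO) and incubated 24 h at 42 °C. Nitrite measured by Griess absorbance at 540 nm against a standard curve. Relative nitrification normalized between DMSO (no compound) and 100 µM PTIO controls.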

[2] = tested on: ABIL (ammonia-binding liquid inoculum), nitrifying microbial enrichment containing both AOA and AOB; assay: Nitrification inhibition assay on ABIL (ammonium consumption); format: cell-based; conditions: 10 µM compound; structural variants outside formula (I); read-out: Relative nitrification (%) by ABIL treated with 10 µM compound
agricultural soils = assay: In soil nitrification inhibition assay; conditions: soil; for inhibition at 50 µM: 50 µM of each compound
Experimental: Top layer (0 to 10 cm) soil samples were collected from different fields in Belgium (Merelbeke, Sint-Laureins and Moorslede). Vegetation was removed and samples were taken from different plots. All soil samples were mixed and sieved (mesh size 2.8 mm) to filter large debris and homogenize soil. The soil was stored at 5° C. in plastic containers covered with Saran foil to prevent changes in microbial community composition and to maintain the original soil water content.
Soil water content was determined by drying 20 g soil for ≥ 48 h in a 60° C. oven and measuring weight before and after drying. Based on the soil water content (± 20%), compound solutions were prepared so that addition of 200 µl compound and 200 µl NH4Cl solution would result in a final compound concentration of 50 µM (unless otherwise stated) and a final NH4+ concentration of 10 mM. Per treatment, 5 small pots were filled with 20 g soil. Next, the soil was treated first with the respective compound solution and then with the NH4Cl solution. Per tray, positive (50 µM DMP) and negative controls (DMSO) were included. […] Demineralized water was added to the soil every 2 to 3 days to a soil weight of 20 g. In the end, each sample of 20 g soil was dissolved in 100 ml 1 M KCI and shaken for 1 hour, followed by filtration through Whatmann® paper. The filtrate was used to measure pH, NH4+ and NO3— concentrations. The nitrification percentage was calculated as the ratio of the consumed ammonium in treated soil versus the consumed ammonium in non-treated soil; the nitrification inhibition percentage was calculated as ‘100% - the nitrification percentage’.

[3] = tested on: ammonia oxidizing archaea; assay: Abundance of ammonia oxidizing archaea in DMP-treated soil
[4] = tested on: agricultural soils (Moorslede and Sint-Laureins); assay: Greenhouse gas measurements from fertilized soil
Experimental: Two agricultural soils coming from fields in Moorslede and Sint-Laureins were used. Screw top vials were filled with 10 g soil. Vials were sealed with Parafilm and preincubated at 21° C. in the dark for 5 days. After pre-incubation, vials were ventilated using a fan. Then 100 µL of a 1 mM compound solution (10 % DMSO) was added, immediately followed by the addition of 100 µL 200 mM NH4Cl. Vials were closed gastight and 5 mL synthetic air was added to the headspace using a plastic syringe, followed by the transfer of 5 mL headspace to an evacuated 3 mL exetainer. Vials were incubated at 21° C. in the dark and background NO concentration was noted. At each sampling timepoint, 5 mL synthetic air was added again to the headspace using a plastic syringe, again followed by the transfer of 5 mL headspace to an evacuated 3 mL exetainer. Vials were ventilated and closed again, and new gas samples were transferred to exetainers like before. N2O in the exetainers were measured via gas chromatography (GC-14 B (Schimadzu) equipped with Haysep Q columns (same spec) and an ECD detector, He at c.a. 20 mL min, 70° C.). The CO2 and CH4 concentration in the 3 mL exetainer vials was measured using a GC (Trace-GC, Interscience) equipped with Haysep Q columns (80-100, ⅛″ divided in 2 part 0.25 and 2.0 m connected with a 6 port valve to allow backflush of water vapor) and a FID (CH4) and TCD (CO2). Carrier gas was He c.a. 20 mL/min kept at 90° C. NO concentration was measured directly by connecting a chemiluminescence NO detector (CLD 77 AM, eco physics) directly to the headspace using a needle.

Aliivibrio fischeri = format: cell-based
Experimental: Furthermore, a representative subset was tested on Aliivibrio fischeri growth (formerly known as Vibrio fischeri), a bacterium used in the Microtox assay to test toxic substances in different substrates such as (drinking) water, air, soils and sediments.
Two of these variants were also tested on Aliivibrio fischeri to test possible toxicity.

## c1ccc(N2CCOCC2)c(CNc2ccc3[nH]ncc3c2)c1 [Example 105]
[1]
  activity at 2.5 µM: 100%
[2]
  activity at 10 µM: 94%

## Cc1nc2c(cnn2C(C)C)c(C)c1CCC(=O)N1CCSCC1 [Example 26]
[1]
  activity at 2.5 µM: 100%
[2]
  activity at 10 µM: 92%

## COC(C)(C)c1noc(Cc2n[nH]c3ccccc23)n1 [Example 125]
[1]
  activity at 2.5 µM: 97%
[2]
  activity at 10 µM: 100%

## Cc1cn[nH]c1C [DMP, 3,4-dimethylpyrazole]
Agricultural soils; 72 h, Soil 2, 3 days
  inhibition at 50 µM: 68%
Agricultural soils; 72 h, Soil 3, 3 days
  inhibition at 50 µM: 52%
Agricultural soils; 168 h, Soil 1, 7 days
  inhibition at 50 µM: 88%
Agricultural soils; 168 h, Soil 1, 7 days, 100 µM
  inhibition at 100 µM: 84%
Agricultural soils; 168 h, Soil 2, 7 days
  inhibition at 50 µM: 14%
Agricultural soils; 168 h, Soil 2, 7 days, 100 µM (Table 2)
  inhibition at 100 µM: 14%
Agricultural soils; 168 h, Soil 2, 7 days, 100 µM of each compound, 6 inhibitors alone and combined with Example 2
  inhibition at 100 µM: 54%
Agricultural soils; 168 h, Soil 3, 7 days
  inhibition at 50 µM: 0%
Agricultural soils; 168 h, Soil 3, 7 days, 100 µM
  inhibition at 100 µM: 0%
[3]
  effect on the presence (abundance) of ammonia oxidizing archaea: no inhibiting effect on the presence of archaea
[4]; Moorslede soil, N2O
  Cumulative emission at indicated timepoint [ppb], N2O, 4 h: 0 ppb
  Cumulative emission at indicated timepoint [ppb], N2O, 24 h: 0 ppb
  Cumulative emission at indicated timepoint [ppb], N2O, 48 h: 0 ppb
  Cumulative emission at indicated timepoint [ppb], N2O, 72 h: 0 ppb
  Cumulative emission at indicated timepoint [ppb], N2O, 99 h: 0 ppb
[4]; Moorslede soil, NO
  Cumulative emission at indicated timepoint [ppb], NO, 4 h: 48 ppb
  Cumulative emission at indicated timepoint [ppb], NO, 24 h: 49 ppb
  Cumulative emission at indicated timepoint [ppb], NO, 48 h: 47 ppb
  Cumulative emission at indicated timepoint [ppb], NO, 72 h: 64 ppb
  Cumulative emission at indicated timepoint [ppb], NO, 99 h: 64 ppb
[4]; Sint-Laureins soil, N2O
  Cumulative emission at indicated timepoint [ppb], N2O, 4 h: 0 ppb
  Cumulative emission at indicated timepoint [ppb], N2O, 24 h: 0 ppb
  Cumulative emission at indicated timepoint [ppb], N2O, 48 h: 0 ppb
  Cumulative emission at indicated timepoint [ppb], N2O, 72 h: 0 ppb
  Cumulative emission at indicated timepoint [ppb], N2O, 99 h: 0 ppb
[4]; Sint-Laureins soil, N2O, 215 h
  Cumulative emission at 215 h [ppb], N2O: 47 ppb
[4]; Sint-Laureins soil, NO
  Cumulative emission at indicated timepoint [ppb], NO, 4 h: 26 ppb
  Cumulative emission at indicated timepoint [ppb], NO, 24 h: 59 ppb
  Cumulative emission at indicated timepoint [ppb], NO, 48 h: 98 ppb
  Cumulative emission at indicated timepoint [ppb], NO, 72 h: 162 ppb
  Cumulative emission at indicated timepoint [ppb], NO, 99 h: 187 ppb
[4]; Sint-Laureins soil, NO, 215 h
  Cumulative emission at 215 h [ppb], NO: 243 ppb

## Cc1nn(-c2ccc(F)cc2)c2nc3c(cc12)C(=O)CC(C)(C)C3 [Example 72]
[1]
  activity at 2.5 µM: 99%
[2]
  activity at 10 µM: 100%

## Cc1n[nH]c2ncc(CNCCc3ccsc3)cc12 [Example 40]
[1]
  activity at 2.5 µM: 93%
[2]
  activity at 10 µM: 98%

## CCC(C)n1ncc2c(C(=O)O)cc(C3CC3)nc21 (stereo not drawn) [Example 32]
[1]
  activity at 2.5 µM: 90%
[2]
  activity at 10 µM: 94%

## CC(C)n1ncc2cc(CNc3ccc4[nH]ncc4c3)cnc21 [Example 94]
[1]
  activity at 2.5 µM: 100%
[2]
  activity at 10 µM: 92%

## CNS(=O)(=O)c1cccc(C(=O)Nc2cnc3c(c2)c(C)nn3C)c1 [Example 43]
[1]
  activity at 2.5 µM: 100%
[2]
  activity at 10 µM: 98%

## Cc1nccc(Nc2ccc3[nH]ncc3c2)n1 [Example 115]
[1]
  activity at 2.5 µM: 96%
[2]
  activity at 10 µM: 98%

## CCN(Cc1nc2ccccc2c(=O)[nH]1)C(=O)CCc1c(C)nc2c(cnn2C(C)C)c1C [Example 92]
[1]
  activity at 2.5 µM: 100%
[2]
  activity at 10 µM: 100%

## CCN(CC1CCOC1)C(=O)c1cc2cnn(C(C)C)c2nc1C (stereo not drawn) [Example 41]
[1]
  activity at 2.5 µM: 100%
[2]
  activity at 10 µM: 98%

## O=C(Nc1ccc(C(=O)Nc2cccc3cn[nH]c23)cc1)c1ccccc1 [Example 137]
[1]
  activity at 2.5 µM: 98%
[2]
  activity at 10 µM: 100%

## CC(C)n1ncc2cc(CNc3ccc4[nH]ncc4c3)cnc21 [drawing 170]
Aliivibrio fischeri
  Growth of Aliivibrio fischeri, relative to control without compound (%): 40%
